According to paper PMC4842970, “Bioactivity Focus of α-Cyano-4-hydroxycinnamic acid (CHCA) Leads to Effective Multifunctional Aldose Reductase Inhibitors” (Scientific Reports, 2016):

Assays:
[1] = biological target: T1, human ALR2 (Homo sapiens, UniProt P15121); experiment: ALR2 inhibition (in vitro reduction of D,L-glyceraldehyde); format: biochemical
T1 construct: purchased WAKO Pure Chemical Industries, Ltd. (Japan); host or cells: baculovirus-insect cell expression system
Experimental: Human ALR2 was purchased from WAKO Pure Chemical Industries, Ltd. (Japan), which was purified from the culture medium of baculovirus-insect cell expression system. […] ALR2 inhibition was determined spectrophotometrically according to the procedure described previously.

[2] = ORACFL radical absorbance capacity assay
Text: With the CHCA scaffold, we hypothesized that 5a–j should have antioxidant activity. Therefore, a radical absorbance capacity assay (ORACFL)[41] was employed to assess their capacities. This method is based on the inhibition of peroxyl-radical-induced oxidation initiated by thermal decomposition of azo-compounds, in this case 2,2′-azo-bis (2-amidinopropane) dihydrochloride (AAPH). Trolox (6-hydroxy-2,5,7,8-tetramethylchroman-2-carboxylic acid) was used as a standard reference. Data is expressed as micromoles of Trolox equivalents (TE) per […] of sample (μmol TE/ml or U/ml).
Antioxidant capacity was determined according to the procedure described previously.

[3] = Stability in DMEM containing 5% FBS (RP-HPLC); format: in vitro ADME; conditions: 37 °C, 12 h incubation
Experimental: Predicted from its structure, the stability of 5f will be good and the toxicity will be low. […] After 12 h incubation, 86% of 5f remained intact.
The sample was incubated in high-glucose Dulbecco’s modified Eagle’s medium (DMEM) containing 5% fetal calf serum (FBS) for a period of 48 h. Analyses were scheduled at 0.5, 1.0, 4.0, 8.0, 12.0, 24.0, and 48.0 h. Reverse-phase high performance liquid chromatography (RP-HPLC) was performed on a Cosmosil column (C18, […], 4.6 × 250 mm) using an LC-100 fluid unit (Shanghai Wufeng Inc., China) with a tunable LC-100 UV detector. The eluent was various percentages of methanol containing pure water (flow rate: 1.0 ml/min; λ: 254 nm). The experiments were repeated at least 3 times and compared with the control experiment. The results were shown in Supporting Infromation.

[4] = test system: sorbitol content; experiment: Sorbitol content in glucose-treated embryos; format: in vivo; conditions: glucose-treated chick embryos, EDD 5, dose 1 μM
Experimental: As expected, treatment of 5f decreased ALR2 activity in a dose-dependent manner. […] However, EDA, which is a clinical radical scavenger, was shown no effect on the inhibition of ALR2.
Embryos on EDD 5 were homogenized with chicken saline and centrifuged (4 °C, 10000 rpm, 10 min). The supernatant was used for measuring AR activity in the sample. A chicken AR ELISA kit (Jianglai Biotechnology, China) were used for detection. The concentration of AR in the samples was then determined by comparing the OD of the samples to the standard curve. The sorbitol contents of the chick embryo were determined by a Sorbitol Colorimetric Assay Kit (BioVision, USA). In the assay, sorbitol is oxidized to fructose with the proportional development of intense color with an absorbance maximum at 560 nm.

[5] = test system: oxidative stress (ROS, MDA, ORAC); experiment: ROS generation, MDA and ORAC level in chick embryos; format: in vivo; conditions: glucose-treated chick embryos
Text: It has been reported that hyperglycemia increased the production of ROS. Blocking the generation of ROS could at least partially prevent the possible damage of hyperglycemia. No doubt, oxidative stress will be induced in glucose treated embryos. This conclusion was confirmed by the determination of ROS and malondialdehyde (MDA) levels, and the anti-oxidation ability in chick embryos on EDD 5. […] However, treatment of 5f decreased both levels of ROS and MDA in a dose-dependent manner.
In addition, the ORAC level is indicative of the anti-oxidative capacity.
ROS generation ratios in the eyes of EDD 5 chick embryos were detected with 5 μmol 2′,7′-dichlorofluorescein-diacetate (DCFH-DA, Sigma-Aldrich). The peroxide content was determined by measuring thiobarbituric-acid-reactive substances (TBARS) with a commercial MDA kit (Nanjing Jiancheng Institute of Biotechnology, Nanjing, China). The procedures for the ORAC assay were modified from the previously described method. The automated ORAC assay was carried out on a decay of the fluorescein signal and determined with an excitation/emission filter pair of 485/527 nm in a GENios Lueifcrase microplate reader (TECAN) at 37 °C. Final results were calculated on the basis of the difference in the area under the fluorescein decay curve between the blank and each sample.

[6] = test system: Pax3; experiment: Pax3 protein expression in chick embryos (Western blotting); format: in vivo; conditions: glucose-treated chick embryos, EDD 5
Experimental: (§1) Figure 4 5f restored neural tube development and marker expression in chick embryos on EDD 5. Glucose concentration (A) and Pax3 protein expression (B) were determined in chick embryos. The plasma glucose concentration was measured using a glucose oxidase-coupled spectrophotometric assay kit. Proteins were detected using the monoclonal antibody anti-Pax3 diluted 1:1000 (DSHB, USA) and visualized using anti-mouse IgG conjugated with horseradish peroxidase (HRP) and Pierce ECL Western Blotting Substrate (Thermo Fisher Scientific, USA) as the substrate of HRP. […] Values were expressed as mean ± SD in each group (n = 10). *P < 0.05, **P < 0.01 vs. control. ^#P < 0.05, ^##P < 0.01 vs. glucose.
The eyes of EDD 5 chick embryos were separated and lysed in lysis buffer (Beyotime Institute of Biotechnology, China) on ice for 10 min. After centrifugation of the cell suspension at 12000 rpm for 15 min, the protein content of the supernatant was determined with a Pierce BCA protein assay kit (Thermo Fisher Scientific, USA) to ensure equal sample loading. […] Proteins were detected using the monoclonal antibody anti-Pax3 diluted 1:1000 (DSHB, USA) and visualized using anti-mouse IgG conjugated with horseradish peroxidase (HRP) and Pierce ECL Western Blotting Substrate (Thermo Fisher Scientific, USA) as the substrate of HRP.

[7] = Plasma glucose in chick embryos; format: in vivo; conditions: glucose-treated chick embryos, EDD 5
Experimental: as §1
The ventricles of embryos were punctured with a 20-gauge needle. At this early embryonic age, 30–40 μL of blood was obtained from the embryos on each EDD 5. The blood containing heparin was centrifuged at 3000 rpm for 15 min. The plasma glucose concentration was measured using a glucose oxidase-coupled spectrophotometric assay kit obtained from Sigma Chemical Co. (St. Louis, MO, USA) according to the manufacturer’s instructions.

## CC(=O)N[C@H](COCc1ccccc1)C(=O)NCCCNC(=O)/C(C#N)=C/c1ccc(O)cc1 [Compound 5f, (R,E) - N - (3-(2-acetamido-3-(benzyloxy)propanamido)propyl)-2-cyano-3-(4-hydroxyphenyl)acrylamide]
[1]; human ALR2, D,L-glyceraldehyde as substrate, read-out: IC50 (ALR2 inhibition)
  IC50: 72.7 ± 1.6 nM
[1]; ratio of inhibition activity vs 5d
  ALR2 inhibition activity relative to 5d: about 5 times
[2]; 3.125 μg/ml
  ORAC: 68.1 ± 2.3 U/ml
[2]; 6.25 μg/ml
  ORAC: 66.5 ± 1.6 U/ml
[2]; 12.5 μg/ml
  ORAC: 65.7 ± 5.1 U/ml
[2]; concentration of 3.125 μM
  ORAC value: 65.7 U/ml
[3]
  remained intact: 86%
[4]
  sorbitol content in embryo: decreased significantly
[5]; EDD 5
  ORAC level (anti-oxidative capacity) of embryo: recovered
[5]; EDD 5, dose 1 μM
  MDA level in embryo: to a normal state
  ROS level in embryo: to a normal state
[6]
  Pax3 expression: restored
[7]
  plasma glucose level: did not lower
